Measured values from patent US5849888A, “Azoamide compound” (Wako Pure Chemical Industries, Ltd., priority 1996, dated 1998).

How the values were obtained:
[1] = Decomposition rate constant at 110° C. (Table 3); type: physicochemical
Method: (§1) 1 Percent (w/w) solution of each azoamide compound obtained in Examples 1 to 7 in ethyl benzene is prepared. A concentration of the azoamide compound is measured in a thermostat at pre-determined interval by 1 hour unit and a coefficient of decomposition rate constant at each temperature is obtained and then the temperature for 10 -hour half life is calculated on the basis of the coefficient by Arrhenius equation.
(§2) 5 ml of styrene containing a 4×10^-4 M of azoamide compound which is obtained example 1, 3, or 6 were placed in individual glass tubes. After deairing, the tubes were sealed under reduced pressure. Each tube was placed into the thermostat adjusted at 110° C. to carry out the polymerization. The tube was took out from the thermostat after predetermined time, cooled under ice water immediately to stop polymerization. The reaction solution was poured into methanol to deposit and precipitate the obtained polymer. The precipitate was recovered by filtration, and dried at 60° C. under reduced pressure for 8 hours. The weight of the polymer obtained was measured and the conversion was calculated.

[2] = Solubility of azoamide compound in 100 g of solvent at 25° C. (Table 1); type: physicochemical; conditions: for Solubility in ethyl acetate: in 100 g of ethyl acetate; for Solubility in toluene: in 100 g of toluene
Text: *^) Solubility of each azoamide compound in 100 g of the solvent at
A polymerization initiator having solubility of generally 2% or more, preferably 5% or more has high applicability, and it can be found from the above Table 1 that any of the azoamide compounds of the present invention is suitable for a polymerization reaction using an organic solvent.

[3] = Half-life test (thermal decomposition in ethyl benzene, 10-hour half life temperature); type: physicochemical; conditions: 1% (w/w) solution in ethyl benzene; calculated by Arrhenius equation
Method: Experiment 1. Half-life test
as §1

[4] = Polymerization of styrene at 110° C. with azoamide initiator (Experiment 2); conditions: 4×10^-4 M initiator
Method: as §2

[5] = in words, cited from earlier work; for solubility in an organic solvent: organic solvent used in solution polymerization of an oily soluble monomer
[6] = listed as 2,2'-azobis (N-methyl-2-methyl propionamide)

Structure (SMILES)	decomposition rate constant [1] [s⁻¹]	Solubility in ethyl acetate [2]	Solubility in toluene [2]	temperature for 10-hour half life [3] [°C]	Conversion ([4]; polymerization time 1 h) [%]	Conversion ([4]; polymerization time 2 h) [%]	Conversion ([4]; polymerization time 3 h) [%]	Conversion ([4]; polymerization time 4 h) [%]	Conversion ([4]; polymerization time 6 h) [%]	Conversion ([4]; polymerization time 8 h) [%]	solubility in water [5]	solubility in an organic solvent [5]	Solubility in ethyl acetate [2, 6]	Solubility in toluene [2, 6]
CC(C)(N=NC(C)(C)C(=O)NC1CCCCC1)C(=O)NC1CCCCC1 [Example 1, 2,2'-azobis (N-cyclohexyl-2-methyl propionamide)]	1.72e-05	3.5 g	5.5 g	111.0	8.7	20.5	30.8	41.2	62.5	81.0				
CCNC(=O)C(C)(C)N=NC(C)(C)C(=O)NCC [Example 7, 2,2'-azobis (N-ethyl-2-methyl propionamide)]		11.0 g	4.0 g	109.6										
CC(C)(N=NC(C)(C)C(N)=O)C(N)=O [2,2'-azobis (2-methylpropionamide)]											water-soluble	poor soluble		
CCCCCCNC(=O)C(C)(C)N=NC(C)(C)C(=O)NCCCCCC [Example 5, 2,2'-azobis (N-hexyl-2-methyl propionamide)]		easily soluble	easily soluble	111.6										
CC(C)(N=NC(C)(C)C(=O)NCO)C(=O)NCO [2,2'-azobis [2-methyl-N-(hydroxymethyl)-propionamide]]											water-soluble	poor soluble		
CCCNC(=O)C(C)(C)N=NC(C)(C)C(=O)NCCC [Example 6, 2,2'-azobis (N-propyl-2-methyl propionamide)]	1.74e-05	easily soluble	easily soluble	110.8	9.0	20.0	31.2	41.0	62.4	83.6				
CC(C)CNC(=O)C(C)(C)N=NC(C)(C)C(=O)NCC(C)C [Example 2, 2,2'-azobis [N-(2-methylpropyl)-2-methylpropionamide]]		14.0 g	8.0 g	112.0										
CNC(=O)C(C)(C)N=NC(C)(C)C(=O)NC [Comparative example, 2,2'-azobis (N-methyl-2-methyl propionamide), reference compound]		1.2 g	≤ 0.5 g								water-soluble	poor soluble	low solubility	low solubility
CCCCNC(=O)C(C)(C)N=NC(C)(C)C(=O)NCCCC [Example 3, 2,2'-azobis (N-butyl-2-methyl propionamide)]	1.79e-05	easily soluble	easily soluble	110.6	9.2	20.8	30.8	41.0	61.2	82.9				
CC(C)NC(=O)C(C)(C)N=NC(C)(C)C(=O)NC(C)C [Example 4, 2,2'-azobis [N-(2-methylethyl)-2-methylpropionamide]]		11.0 g	5.0 g	111.2										
